According to patent US20180178031A1, “DENTAL DEVICE AND PHOTODYNAMIC THERAPEUTIC SYSTEM USING SAME” (priority 2016, published 2018):

How the values were obtained:
[1] = system: gram negative (G (−)) bacteria (Aggregatibacter actinomycetemcomitans, Fusobacterium nucleatum, Porphyromonas gingivalis); assay: photodynamic therapy bacterial disinfection assay in vitro, G (−) bacteria; assay type: cell-based; conditions: photosensitizer plus infrared laser ray 808 nanometers, irradiating about 5 minutes, in vitro (FIG. 8)
Source text: (§1) One group assay represents the different bacterial disinfection by using the photodynamic therapy method in vitro with a specific irradiated wavelength of the light, and the other group assay represents the different bacterial disinfection by using the photodynamic therapy method in vitro with a specific compound X and the specific irradiated wavelength of the light. […] The light is infrared laser ray. The specific irradiated wavelength of the infrared laser ray of is 808 nanometers. The specific compound X is a photosensitizer. The photosensitizer is the indocyanine green dye. The period of irradiating the bacteria is about 5 minutes. The bacteria include gram positive (G (+)) bacteria and gram negative (G (−)) bacteria. The G (+) bacteria include a Streptococcus mutans (S. mutans) and a Streptococcus sobrinus (S. sobrinus). The G (−) bacteria include an Aggregatibacter actinomycetemcomitans (A. actinomycetemcomitans), a Fusobacterium nucleatum (F. nucleatum), and a Porphyromonas gingivalis (P. gingivalis).

[2] = system: gram positive (G (+)) bacteria (Streptococcus mutans, Streptococcus sobrinus); assay: photodynamic therapy bacterial disinfection assay in vitro, G (+) bacteria; assay type: cell-based; conditions: photosensitizer plus infrared laser ray 808 nanometers, irradiating about 5 minutes, in vitro (FIG. 8)
Source text: as §1

## CC1(C)C(/C=C/C=C/C=C/C=C2\N(CCCCS(=O)(=O)O)c3ccc4ccccc4c3C2(C)C)=[N+](CCCCS(=O)(=O)[O-])c2ccc3ccccc3c21 [compound X, indocyanine green]
[1]
  percentage growth rate of the bacteria: less than 20%
[2]
  percentage growth rate of the bacteria: zero
